pIC50: −log10 of the molar value. Converted amounts (≈) assume the structure as drawn.
Key:
Hepatitis B virus [1] = test: Antiviral activity against HBV infected in human HepG2 cells assessed as reduction in HBeAg secretion incubated for 5 days by counter screen assay; format: functional, organism-based; details: HepG2, 120 h
[2] = Metabolic stability in human microsomes assessed as clearance; format: ADME, Microsome; details: read-out: CLH
[3] = Aqueous solubility of the compound; format: physicochemical; details: buffer
[4] = Permeability of the compound by PAMPA analysis; format: ADME; details: read-out: permeability
Hepatitis B virus [5] = test: Antiviral activity against HBV infected in human HepDES19 cells assessed as reduction in HBV cccDNA production by measuring inhibition of HBeAg secretion incubated for 5 days by ELISA; format: functional, organism-based; details: HepDES19, 120 h
[6] = Octanol-aqueous buffer distribution coefficient, log D of the compound at pH 7.4 by CAMDIS assay; format: physicochemical
[7] = Therapeutic index, ratio of CC50 for cytotoxicity against human HepDES19 cells assessed as reduction in cell viability measured after 5 days by CCK-8 assay to IC50 for antiviral activity against HBV infected in human HepDES19 cells assessed as reduction in HBV cccDNA production by measuring inhibition of HBeAg secretion incubated for 5 days by ELISA; format: toxicity, cell-based; details: time 5 day, read-out: Ratio CC50/IC50
[8] = Cytotoxicity against human HepDES19 cells assessed as reduction in cell viability measured after 5 days by CCK-8 assay; format: toxicity, cell-based; details: time 5 day

| Compound | pIC50 (Hepatitis B virus [1]) | CLint scaled [2] | solubility [3] | Papp [4] | pIC50 (Hepatitis B virus [5]) | logD [6] | selectivity ratio at 120 h [7] | CC50 at 120 h [8] |
| --- | --- | --- | --- | --- | --- | --- | --- | --- |
| O=C(O)c1cc2c(=O)c3cccc(Cl)c3oc2cc1N1CCCC1 | < 4.30 | 6.7 mL/min/kg | 30 µg/mL (≈ 87.3 µM) | 8.64 ×10⁻⁶ cm/s | < 4.00 | – | – | – |
| CN1CCN(c2ccc3c(=O)c4cccc(F)c4oc3c2)CC1 | < 4.30 | 18 mL/min/kg | 27 µg/mL (≈ 86.4 µM) | 0.08 ×10⁻⁶ cm/s | 4.79 | – | – | – |
| CC(=O)Nc1ccc2c(=O)c3cccc(F)c3oc2c1 | < 4.30 | 19.7 mL/min/kg | < 1 µg/mL | 8.5 ×10⁻⁶ cm/s | 5.21 | – | – | – |
| O=C(O)C1CCN(c2ccc3c(=O)c4c(O)ccc(Cl)c4oc3c2)C1 (centres undefined) | < 4.30 | – | 200 µg/mL (≈ 556 µM) | 0.53 ×10⁻⁶ cm/s | 5.76 | 1.71 | – | – |
| O=C(O)C1CCCN1c1ccc2c(=O)c3cccc(Cl)c3oc2c1 (centres undefined) | < 4.30 | 6.2 mL/min/kg | 290 µg/mL (≈ 844 µM) | 2.79 ×10⁻⁶ cm/s | 4.94 | – | – | – |
| Fc1cccc2c1Oc1cc(N3CCCC3)ccc1C2 | < 4.30 | – | < 1 µg/mL | – | 5.40 | – | – | – |
| Clc1cccc2c1Oc1cc(N3CCCC3)ccc1C2C1COC1 (centres undefined) | < 4.30 | – | – | 0.09 ×10⁻⁶ cm/s | 5.13 | – | – | – |
| COc1ccc(Cl)c2oc3cc(N4CCC(C(=O)O)C4)ccc3c(=O)c12 (centres undefined) | < 4.30 | – | > 415 µg/mL | 0.68 ×10⁻⁶ cm/s | < 4.30 | 0.47 | – | – |
| CC1(C(=O)O)CCN(c2ccc3c(=O)c4cccc(Cl)c4oc3c2)C1 (centres undefined) | < 4.30 | – | – | 2.03 ×10⁻⁶ cm/s | 5.76 | 1.73 | – | – |
| O=C(O)C1CCN(c2ccc3c(c2)Oc2c(Cl)cccc2S3(=O)=O)C1 (centres undefined) | < 4.30 | – | < 506 µg/mL | 1.26 ×10⁻⁶ cm/s | < 4.30 | – | – | – |
| O=c1c2ccc(N3CCCC3)nc2oc2c(F)cccc12 | < 4.30 | 20.6 mL/min/kg | – | 9.1 ×10⁻⁶ cm/s | 4.72 | – | – | – |
| CC1c2ccc(N3CCCC3)cc2Oc2c(Cl)cccc21 (centres undefined) | < 4.30 | – | < 1 µg/mL | 0.015 ×10⁻⁶ cm/s | 5.82 | – | – | – |
| Clc1cccc2c1Oc1cc(N3CCCC3)ccc1C2 | < 4.30 | – | < 1 µg/mL | 0.36 ×10⁻⁶ cm/s | 5.95 | – | – | – |
| NC1CCN(c2ccc3c(=O)c4cccc(F)c4oc3c2)C1 (centres undefined) | < 4.30 | 6.7 mL/min/kg | 23 µg/mL (≈ 77.1 µM) | 0.79 ×10⁻⁶ cm/s | 5.31 | – | – | – |
| CCOc1ccc(Cl)c2oc3cc(N4CCC(C(=O)O)C4)ccc3c(=O)c12 (centres undefined) | < 4.30 | – | 330 µg/mL (≈ 851 µM) | 0.7 ×10⁻⁶ cm/s | 5.54 | 0.93 | – | – |
| O=C(O)C1CCN(c2cc3oc4c(Cl)cccc4c(=O)c3cc2Cl)C1 (centres undefined) | < 4.30 | – | < 1 µg/mL | 1.59 ×10⁻⁶ cm/s | 5.95 | 1.95 | – | – |
| O=c1c2ccc(N3CCCC3)cc2oc2c(Cl)cccc12 | < 4.30 | 18.9 mL/min/kg | < 1 µg/mL | 0.24 ×10⁻⁶ cm/s | 6.64 | – | – | – |
| CCN(CC)c1ccc2c(=O)c3cccc(Cl)c3oc2c1 | < 4.30 | 20.3 mL/min/kg | < 1 µg/mL | 0.54 ×10⁻⁶ cm/s | 5.78 | – | – | – |
| O=C(O)C1CCCN(c2ccc3c(=O)c4cccc(Cl)c4oc3c2)C1 (centres undefined) | < 4.30 | 6.2 mL/min/kg | < 474 µg/mL | 2.43 ×10⁻⁶ cm/s | 5.42 | – | – | – |
| O=c1c2ccc(N3CCCCCC3)cc2oc2c(F)cccc12 | < 4.30 | 6.2 mL/min/kg | 73 µg/mL (≈ 234 µM) | 1.64 ×10⁻⁶ cm/s | 5.12 | – | – | – |

| Compound | pIC50 (Hepatitis B virus [1]) | CLint scaled [2] | solubility [3] | Papp [4] | pIC50 (Hepatitis B virus [5]) | logD [6] | selectivity ratio at 120 h [7] | CC50 at 120 h [8] |
| --- | --- | --- | --- | --- | --- | --- | --- | --- |
| Cc1ccc(Cl)c2oc3cc(N4CCC(C(=O)O)C4)ccc3c(=O)c12 (centres undefined) | < 4.30 | – | 252 µg/mL (≈ 704 µM) | 0.59 ×10⁻⁶ cm/s | 5.95 | 1.75 | – | – |
| CCNc1ccc2c(=O)c3cccc(F)c3oc2c1 | < 4.30 | 22.6 mL/min/kg | < 1 µg/mL | 0.36 ×10⁻⁶ cm/s | 6.21 | – | – | – |
| O=c1c2ccc(N3CCC(O)C3)cc2oc2c(F)cccc12 (centres undefined) | < 4.30 | 17.5 mL/min/kg | < 1 µg/mL | 1.49 ×10⁻⁶ cm/s | 6.37 | – | – | – |
| O=C1CCCN1c1ccc2c(=O)c3cccc(F)c3oc2c1 | < 4.30 | 22 mL/min/kg | < 1 µg/mL | 2.09 ×10⁻⁶ cm/s | 6.08 | – | – | – |
| CCNc1ccc2c(=O)c3cccc(Cl)c3oc2c1 | < 4.30 | 15.7 mL/min/kg | < 1 µg/mL | 6.73 ×10⁻⁶ cm/s | 6.77 | – | – | – |
| O=C(O)C1(C(F)(F)F)CCN(c2ccc3c(=O)c4cccc(Cl)c4oc3c2)C1 (centres undefined) | < 4.30 | – | > 510 µg/mL | 1.78 ×10⁻⁶ cm/s | 4.57 | 1.26 | – | – |
| O=C1Nc2ccc(N3CCCC3)cc2Oc2c(Cl)cccc21 | < 4.30 | – | < 1 µg/mL | 2.09 ×10⁻⁶ cm/s | 5.23 | – | – | – |
| N#Cc1cc2c(=O)c3cccc(Cl)c3oc2cc1N1CCC(C(=O)O)C1 (centres undefined) | < 4.30 | – | > 430 µg/mL | – | 5.08 | < -0.5 | – | – |
| O=c1c2ccc(N3CCOCC3)cc2oc2c(F)cccc12 | < 4.30 | 20.8 mL/min/kg | < 1 µg/mL | 1.8 ×10⁻⁶ cm/s | 5.68 | – | – | – |
| CC1(C)CN(c2ccc3c(=O)c4cccc(Cl)c4oc3c2)CC1C(=O)O (centres undefined) | < 4.30 | – | 294 µg/mL (≈ 791 µM) | 0.98 ×10⁻⁶ cm/s | 4.90 | – | – | – |
| O=C1Nc2ccc(N3CCC(C(=O)O)C3)cc2Oc2c(Cl)cccc21 (centres undefined) | < 4.30 | – | < 415 µg/mL | 1 ×10⁻⁶ cm/s | < 4.30 | – | – | – |
| O=c1c2ccc(N3CCCCC3)cc2oc2c(Cl)cccc12 | < 4.30 | 20.2 mL/min/kg | < 1 µg/mL | 0.49 ×10⁻⁶ cm/s | 6.01 | – | – | – |
| Cn1ccnc1C(=O)Nc1ccc2c(=O)c3cccc(F)c3oc2c1 | < 4.30 | – | – | – | 6.31 | – | > 102 | > 50 µM |
| O=c1c2ccc(N3CCCC3)cc2oc2c(F)cccc12 | < 4.30 | 20.5 mL/min/kg | < 1 µg/mL | 0.95 ×10⁻⁶ cm/s | 6.68 | – | – | – |
| O=C(O)CC1CCN(c2ccc3c(=O)c4cccc(Cl)c4oc3c2)C1 (centres undefined) | < 4.30 | – | < 465 µg/mL | 1.55 ×10⁻⁶ cm/s | 5.18 | – | – | – |
| OC1(C(F)(F)F)c2ccc(N3CCCC3)cc2Oc2c(Cl)cccc21 (centres undefined) | < 4.30 | – | < 1 µg/mL | 6.73 ×10⁻⁶ cm/s | 4.72 | – | – | – |
| O=C(O)[C@H]1CN(c2ccc3c(=O)c4cccc(Cl)c4oc3c2)C[C@@H]1c1ccc(F)cc1 | < 4.30 | – | – | – | 5.13 | – | – | – |
| O=C1Nc2cccc(Cl)c2Oc2cc(N3CCC(C(=O)O)C3)ccc21 (centres undefined) | < 4.30 | – | – | 1.64 ×10⁻⁶ cm/s | 4.85 | – | – | – |
| O=C(O)C1CCN(c2cc3oc4c(Cl)cccc4c(=O)c3cn2)C1 (centres undefined) | < 4.30 | – | > 395 µg/mL | 0.96 ×10⁻⁶ cm/s | 5.39 | < -0.5 | – | – |
| O=C(O)C1CCN(c2ccc3c(=O)c4cccc(Cl)c4oc3n2)C1 (centres undefined) | < 4.30 | 6.2 mL/min/kg | 410 µg/mL (≈ 1190 µM) | 1.55 ×10⁻⁶ cm/s | 4.30 | – | – | – |

From ChEMBL document CHEMBL5137099, “Discovery of Novel cccDNA Reducers toward the Cure of Hepatitis B Virus Infection” (J Med Chem, 2022)
